From patent US20040063662A1, “Selenophene anti-tumor agents” (priority 1996, published 2004)

Assays:
MOLT-4 = experiment: NCI human tumor cell panel: MOLT-4 (Leukemia); assay type: cell-based; settings: MOLT-4, Leukemia
RPMI-8226 = experiment: NCI human tumor cell panel: RPMI-8226 (Leukemia); assay type: cell-based; settings: RPMI-8226, Leukemia
A549/ATCC = experiment: NCI human tumor cell panel: A549/ATCC (Non-Small Cell Lung Cancer); assay type: cell-based; settings: Non-Small Cell Lung Cancer
EKVX = experiment: NCI human tumor cell panel: EKVX (Non-Small Cell Lung Cancer); assay type: cell-based; settings: Non-Small Cell Lung Cancer, read-out: Log10 GI50 (converted)
NCI-H23 = experiment: NCI human tumor cell panel: NCI-H23 (Non-Small Cell Lung Cancer); assay type: cell-based; settings: NCI-H23, Non-Small Cell Lung Cancer, read-out: Log10 TGI (converted)
NCI-H322M = experiment: cells; assay type: cell-based; settings: Homo sapiens, Non-Small Cell Lung Cancer
NCI-H460 = experiment: NCI human tumor cell panel: NCI-H460 (Non-Small Cell Lung Cancer); assay type: cell-based; settings: NCI-H460, Non-Small Cell Lung Cancer
HCT-116 = experiment: NCI human tumor cell panel: HCT-116 (Colon Cancer); assay type: cell-based; settings: HCT-116, Colon Cancer
HT29 = experiment: NCI human tumor cell panel: HT29 (Colon Cancer); assay type: cell-based; settings: HT-29, HT29, Colon Cancer
SW-620 = experiment: NCI human tumor cell panel: SW-620 (Colon Cancer); assay type: cell-based; settings: SW-620, Colon Cancer
SF-295 = experiment: NCI human tumor cell panel: SF-295 (CNS Cancer); assay type: cell-based; settings: SF-295, CNS Cancer
SF-539 = experiment: NCI human tumor cell panel: SF-539 (CNS Cancer); assay type: cell-based; settings: SF-539, CNS Cancer
SNB-75 = experiment: NCI human tumor cell panel: SNB-75 (CNS Cancer); assay type: cell-based; settings: SNB-75, CNS Cancer
U251 = experiment: NCI human tumor cell panel: U251 (CNS Cancer); assay type: cell-based; settings: U-251, U251, CNS Cancer
LOX IMVI = experiment: NCI human tumor cell panel: LOX IMVI (Melanoma); assay type: cell-based; settings: Melanoma
M14 = experiment: NCI human tumor cell panel: M14 (Melanoma); assay type: cell-based; settings: M14, Melanoma
SK-MEL-2 = experiment: NCI human tumor cell panel: SK-MEL-2 (Melanoma); assay type: cell-based; settings: SK-MEL-2, Melanoma
SK-MEL-28 = experiment: NCI human tumor cell panel: SK-MEL-28 (Melanoma); assay type: cell-based; settings: SK-MEL-28, Melanoma
SK-MEL-5 = experiment: NCI human tumor cell panel: SK-MEL-5 (Melanoma); assay type: cell-based; settings: SK-MEL-5, Melanoma
IGROV1 = experiment: NCI human tumor cell panel: IGROV1 (Ovarian Cancer); assay type: cell-based; settings: IGROV-1, IGROV1, Ovarian Cancer
OVCAR-3 = experiment: NCI human tumor cell panel: OVCAR-3 (Ovarian Cancer); assay type: cell-based; settings: OVCAR-3, Ovarian Cancer
OVCAR-8 = experiment: NCI human tumor cell panel: OVCAR-8 (Ovarian Cancer); assay type: cell-based; settings: OVCAR-8, Ovarian Cancer
786-0 = experiment: NCI human tumor cell panel: 786-0 (Renal Cancer); assay type: cell-based; settings: 786-0, Renal Cancer
ACHN = experiment: NCI human tumor cell panel: ACHN (Renal Cancer); assay type: cell-based; settings: Renal Cancer
TK-10 = experiment: NCI human tumor cell panel: TK-10 (Renal Cancer); assay type: cell-based; settings: TK-10, Renal Cancer
UO-31 = experiment: NCI human tumor cell panel: UO-31 (Renal Cancer); assay type: cell-based; settings: UO-31, Renal Cancer
MCF7/ADR-RES = experiment: NCI human tumor cell panel: MCF7/ADR-RES (Breast Cancer); assay type: cell-based; settings: Breast Cancer
MDA-MB-435 = experiment: NCI human tumor cell panel: MDA-MB-435 (Breast Cancer); assay type: cell-based; settings: MDA-MB-435, Breast Cancer
MDA-N = experiment: NCI human tumor cell panel: MDA-N (Breast Cancer); assay type: cell-based; settings: Breast Cancer
BT-549 = experiment: NCI human tumor cell panel: BT-549 (Breast Cancer); assay type: cell-based; settings: BT-549, Breast Cancer
NCI-H522 = experiment: NCI human tumor cell panel: NCI-H522 (Non-Small Cell Lung Cancer)
[1] = read-out: Log10 GI50 (converted)
[2] = read-out: Log10 TGI (converted)

## O=Cc1ccc(-c2ccc(-c3ccc(C=O)[se]3)s2)[se]1 [NSC 676630]
MOLT-4; [1]
  GI50: > 100 µM
MOLT-4; [2]
  IC (TGI): > 100 µM
RPMI-8226; [1]
  GI50: > 100 µM
RPMI-8226; read-out: Log10 TGI
  IC (TGI): > 100 µM
A549/ATCC; [1]
  GI50: 87.1 µM
A549/ATCC; [2]
  IC (TGI): > 100 µM
EKVX
  GI50: > 100 µM
NCI-H23
  IC (TGI): > 100 µM
NCI-H322M; [1]
  GI50: > 100 µM
NCI-H322M; [2]
  IC (TGI): > 100 µM
NCI-H460; [1]
  GI50: 0.129 µM
NCI-H460; [2]
  IC (TGI): > 100 µM
HCT-116; [1]
  GI50: 3.02 µM
HCT-116; [2]
  IC (TGI): > 100 µM
HT29; [1]
  GI50: > 100 µM
HT29; [2]
  IC (TGI): > 100 µM
SW-620; [1]
  GI50: > 100 µM
SW-620; [2]
  IC (TGI): > 100 µM
SF-295; [1]
  GI50: > 100 µM
SF-295; [2]
  IC (TGI): > 100 µM
SF-539; [1]
  GI50: > 100 µM
SF-539; [2]
  IC (TGI): > 100 µM
SNB-75; [1]
  GI50: 67.6 µM
SNB-75; [2]
  IC (TGI): > 100 µM
U251; [1]
  GI50: 0.589 µM
U251; [2]
  IC (TGI): > 100 µM
LOX IMVI; [1]
  GI50: > 100 µM
LOX IMVI; [2]
  IC (TGI): > 100 µM
M14; [1]
  GI50: > 100 µM
M14; [2]
  IC (TGI): > 100 µM
SK-MEL-2; [1]
  GI50: > 100 µM
SK-MEL-2; [2]
  IC (TGI): > 100 µM
SK-MEL-28; [1]
  GI50: > 100 µM
SK-MEL-28; [2]
  IC (TGI): > 100 µM
SK-MEL-5; [1]
  GI50: > 100 µM
SK-MEL-5; [2]
  IC (TGI): > 100 µM
IGROV1; [1]
  GI50: 1.48 µM
IGROV1; [2]
  IC (TGI): > 100 µM
OVCAR-3; [1]
  GI50: 0.724 µM
OVCAR-3; [2]
  IC (TGI): > 100 µM
OVCAR-8; [1]
  GI50: 33.1 µM
OVCAR-8; [2]
  IC (TGI): > 100 µM
786-0; [1]
  GI50: > 100 µM
786-0; [2]
  IC (TGI): > 100 µM
ACHN; [1]
  GI50: > 100 µM
ACHN; [2]
  IC (TGI): > 100 µM
TK-10; [1]
  GI50: 0.38 µM
TK-10; [2]
  IC (TGI): 1.62 µM
UO-31; [1]
  GI50: > 100 µM
UO-31; [2]
  IC (TGI): > 100 µM
MCF7/ADR-RES; [1]
  GI50: 79.4 µM
MCF7/ADR-RES; [2]
  IC (TGI): > 100 µM
MDA-MB-435; [1]
  GI50: > 100 µM
MDA-MB-435; [2]
  IC (TGI): > 100 µM
MDA-N; [1]
  GI50: > 100 µM
MDA-N; [2]
  IC (TGI): > 100 µM
BT-549; [1]
  GI50: 63.1 µM
BT-549; [2]
  IC (TGI): > 100 µM
NCI-H522; NCI-H522, read-out: Log10 GI50 (converted)
  GI50: 20.9 µM
NCI-H522; NCI-H522, read-out: Log10 TGI
  IC (TGI): 53.7 µM
